# Details: buffer; pH 7.4; 200.0 µM
row,SMILES,solubility kinetic [µg/mL]
1,O=[N+]([O-])c1ccc(OCCCOc2cccc3cccnc23)cc1,0.6
2,CCCC(=O)Nc1ccc(C=C(C(C)=O)C(C)=O)cc1,> 41
3,COC(=O)N1c2ccccc2CCc2ccccc21,36.6
4,Cc1ccc(CSCC(=O)Nc2ccccc2F)cc1,27.6
5,O=C(N/N=C/c1ccccc1Cl)C1CC1,> 33.4
6,CCC(C)(C)C(=O)Nc1cccc(Cl)c1C,> 36
7,COc1cc2c(cc1OC)/C(=C/C(=O)c1ccccc1F)NCC2,40.4
8,COc1cccc(CNC(=S)NC2CC2)c1,35.2
9,CSc1ccc(/C=C/C(=O)NC(=O)c2ccccc2O)cc1,3.9
10,O=C(Nc1ccccc1)OCCOc1cccc(Br)c1,6.6
11,CCCN1C(=O)CC(Sc2ncccc2C(=O)O)C1=O (stereo not given),42.5
12,COc1ccc(N2CCN(C(=S)NCc3ccc(C)cc3)CC2)cc1,< 0.3
13,Cl.O[C@@H](c1cc(C(F)(F)F)nc2c(C(F)(F)F)cccc12)[C@H]1CCCCN1,> 62.2
14,Cc1cccc(OCCC(=O)Nc2ccc(C)c(S(=O)(=O)N3CCOCC3)c2)c1,21.5
15,N#Cc1cccc(NC(=O)CN2CCCCCC2)c1,> 38.6
16,CCOc1ccc(N2C(=O)CC(NCC#N)C2=O)cc1 (stereo not given),> 41
17,COc1cccc(CN(C)C(=O)c2csc3c2CCCC3)c1OC,46.5
18,Cc1ccc(C(C)NC(=O)Cc2cccs2)cc1C (stereo not given),> 41
19,CN(C)CC(C)(C)CNc1ccc(S(=O)(=O)N2CCCC2)cn1,> 51.1
20,CN=C(Nc1cccnc1)c1ccccc1,> 31.7

row,SMILES,solubility kinetic [µg/mL]
1,CCCNS(=O)(=O)c1cc2c3c(c1)CCN3C(=O)CC2,> 44.2
2,O=C(OCC(O)COc1ccccc1)c1ccc([N+](=O)[O-])cc1 (stereo not given),43.7
3,CN(C)S(=O)(=O)c1ccc(C(=O)OCC2CCCO2)cc1 (stereo not given),> 47
4,CC1CN(C(C)C)C(C)CC1OC(=O)c1ccccc1 (stereo not given),> 41.3
5,COc1ccc(CC(=O)Nc2cc(C)ccn2)cc1OC,27.7
6,O=c1[nH]c2ccccc2nc1C(Nc1ccccc1)c1ccccc1 (stereo not given),< 0.2
7,CSCCC(=O)N1CCCC(N(C)CCc2ccccc2)C1 (stereo not given),41.7
8,COc1ccc(CNC(=O)CN(c2ccccc2OC)S(=O)(=O)c2cccs2)cc1,10.7
9,Cn1cnc([N+](=O)[O-])c1Sc1ncnc2nc[nH]c12,> 41.6
10,Cc1cc(NC(=O)C2CC(=O)N(c3ccc(F)cc3)C2)no1 (stereo not given),> 45.5
11,COc1ccc([N+](=O)[O-])cc1NC(=O)COC(=O)c1ccccn1,20.9
12,CCCCn1c(O)c(C(CC)=NCCCn2ccnc2)c(=O)[nH]c1=O,48.2
13,Cc1ccc(CNC(=O)C2CCCN2C(=O)Nc2ccc(C)cc2)cc1 (stereo not given),11.4
14,Cc1ccc(NC(=O)CCc2nc3ccccc3s2)c(O)c1,8.9
15,Cc1ccc(C)c(Nc2c([N+](=O)[O-])ccc3nonc23)c1,0.2
16,Cc1cc(C2(O)C(=O)Nc3ccccc32)ccc1F (stereo not given),> 38.6
17,COc1ccc(Br)cc1CN(C)CC(=O)Nc1cccc(S(=O)(=O)N2CCCC2)c1.O=C(O)C(=O)O,12.9
18,C=CCCC(=O)N1CCCC(C(=O)c2cccc(OC)c2)C1 (stereo not given),40.7
19,CC(=O)c1ccc(NC(=O)COC(=O)c2c[nH]c3ccccc23)cc1,1.8
20,CNC(=O)NC(=O)COc1ccc2oc3c(c2c1)CCCC3,2

row,SMILES,solubility kinetic [µg/mL]
1,COc1ccc(C(=O)CSc2nc3ncccc3[nH]2)cc1OC,13.4
2,CN(C)S(=O)(=O)c1cccc(NC(=O)COC(=O)c2cccnc2Cl)c1,> 59.7
3,COc1ccc2c(c1)c(C(C)=O)c(C)n2Cc1ccco1,36.7
4,O=C(NC1CCCCCC1)C(=S)N1CCOCC1,23.1
5,COc1ccc(NC(=O)C2CC(=O)N=C(N)S2)cc1 (stereo not given),> 41.9
6,O=C(COC(=O)c1cccc(OC(F)F)c1)Nc1ncccn1,30.2
7,CS(=O)(=O)c1ccc(C(=O)NC2CCCc3ccccc32)cc1 (stereo not given),35.2
8,CCOC(=O)N1CCN(c2ccccc2OC)CC1,> 39.6
9,COc1cccc(OC)c1C(=O)Nc1sc2c(c1C#N)CCC2,0.7
10,CNC(=O)c1ccccc1Nc1ccc(SC(F)F)cc1,28.6
11,Cc1ccccc1C(=O)NC1CCN(CC(=O)N2CCCCC2C)CC1 (stereo not given),> 53.6
12,CC(=O)Nc1ccc2nc(NC(=O)c3ccco3)sc2c1,4.9
13,CCCSc1sc(C(=O)OC)c(-c2cccs2)c1C#N,< 0.7
14,Cc1c(NC(=O)CSCc2ccc(Cl)cc2Cl)cccc1C(=O)O,> 57.6
15,Cc1ccc(S(=O)(=O)N2CCN(c3ccccc3)CC2)s1,2.3
16,O=C1CCCC(=O)N1c1ccc(F)cc1,> 31.1
17,Cn1ncc(C(=O)N=S(C)(=O)c2ccccc2)c1[N+](=O)[O-] (stereo not given),> 46.2
18,NC1=NC(=O)/C(=C/c2cccc(F)c2)S1,2.7
19,CCOc1ccc(C(=O)NCc2ccc3c(c2)OCO3)cc1OCC,1.2
20,COc1ccc(NC(=O)COc2ccc(C)cc2)c([N+](=O)[O-])c1,< 0.3

# Source: PubChem BioAssay AID1996
